{"source": "patent US20100248229A1", "about": "“INVITRO HUMAN EMBRYONIC MODEL AND A METHOD THEREOF” (Stempeutics Research Private Limited, priority 2007, published 2010)", "key": {"[1]": {"tested_on": "hematopoietic precursor cells", "details": "report [21]; cited from earlier work"}, "[2]": {"tested_on": "EBs derived from hESC line HUES9", "experiment": "Cell counting: DAPI stained nuclei per EB", "format": "cell-based, human", "details": "12.5 pg/ml for 48 hrs", "protocol": "(§1) Immunofluorescence and Cell counting: HESCs were grown on coverslips coated with MEFs and then fixed with 4% paraformaldehyde and 5% sucrose (Sigma) followed by permeabilization in 0.2% Triton X100 (Sigma). The slides were then incubated with primary antibodies 1:500 dilution of SSEA4 (Chemicon, Calif., USA), 5 ug/ml Nanog (Santa Cruz Biotechnology, CA, USA), 10 μg/ml Brachury (R&D Systems Inc. Minneapolis, USA), and 1.5 μg/ml HMGB1 (Sigma) overnight at 4° C. After washing thrice with PBS, fluorescein isothiocyanate/Texas red-labeled Secondary antibodies against the primary goat/rabbit/mouse were added as 1:500 dilutions and incubated for 2 hours. DAPI (Sigma) was used for nuclear staining and then washed with PBS. The negative controls were done without primary antibodies. Slides were mounted with DABCC (Sigma) and images were acquired using Nikon Eclipse 90i microscope (Nikon Corporation, Japan) and Image-Pro Express software (Media Cybernetics, Inc, Silver Spring, Md.). The results were then compared with the control cells (non-LPS treated EBs). To count the number of cells per EB, the number of DAPI stained nuclei were counted in 10 each of the control and LPS treated EBs.\nCell numbers and DNA fragmentation: For a count of the average number of cells per EB, the DAPI stained nuclei were counted in individual control and LPS treated EBs under epifluorescence. […]"}, "[3]": {"tested_on": "EBs derived from hESC line HUES9", "experiment": "Immunofluorescence localization of HMGB1 and Brachury in EBs", "format": "cell-based, human", "details": "for Brachury protein expression (immunofluorescence): day 4.5, normal EBs positive", "description": "Exposure of EBs to LPS: EBs at day-2.5 were exposed to 12.5 pg/ml of Endotoxin/lipopolysaccharide (LPS) (Sigma) for 48 hrs supplemented in culture medium. […] Post exposure, the control and endotoxin treated EBs were divided in two groups. One group was lysed in TRIZOL for RNA isolation and the other group was fixed in 4% paraformaldehyde for immunofluorescence. The expression profile of the ectoderm, endoderm, mesoderm and trophectoderm lineage markers like PHI-tubulin, GATA4, BMP2, Brachury and β-hCG etc. were studied by RT-PCR and Immunofluorescence. The expression of the LPS-inducible and pluripotency related DNA binding protein HMGB1 was also studied in both the control and treated EBs.\nas §1"}, "[4]": {"tested_on": "EBs", "experiment": "Differentiation of EBs into tissues of mesoderm origin / osteoblast differentiation (von Kossa, Alizarin Red)", "format": "cell-based, human", "details": "for osteoblast differentiation (mineralization by Alizarin Red and von Kossa staining): 15 days of differentiation", "description": "The EBs were used to direct their differentiation into tissues of the ectoderm (nerve, skin), endoderm (pancreas, lungs), mesoderm (bone, blood, cardiomyocytes) and trophectoderm lineages (placenta) using known and published methods (Bader et al., 2000; Buttery et al., 2001; Lumelsky et al., 2001; Lee et al; 2000; Schuliner et al., 2001). A description of the methods used for differentiation of hESC to various tissues of the ectoderm, endoderm, mesoderm and trophectoderm lineages can be found in Hyslop et al. (2005). The ability of the compound/drug to inhibit the differentiation of EBs into these tissues of any particular type will indicate the possibility of developmental defect induced by the drug.\nEndotoxins/LPS silenced the expression of mesoderm specific genes in the EBs. […] To confirm this effect the LPS exposed EBs were directed towards tissues of mesoderm origin like cardiomyocytes, blood or bone. […] This indicates the possibility of defects in the blood, bone or heart formation as a result of endotoxin exposure during fetal development.\nEBs derived from the human embryonic stem cell (hESC) line HUES9 were exposed to 12.5 pg/ml of LPS for 48 hrs. The expression profile of the ectoderm, endoderm, mesoderm and trophectoderm lineage markers like βIII-tubulin, GATA4, BMP2, Brachury and β-hCG were studied, by RT-PCR and Immunofluorescence. Inhibition of mesoderm induction was confirmed by RT-PCR analysis for hANP, cTnT, ABCG2, GATA2, BMP4 and HAND1. Osteoblast differentiation was induced in the EBs, and confirmed by von Kosa and Alizarin red staining. A comet assay was also done to assess the degree of apoptosis in these EBs.\nOsteoblast differentiation: To assess the differentiating potential of EBs towards tissues of mesoderm origin, embryoid bodies were produced and exposed to LPS as described above. The normal and LPS treated EBs, 30 each, were subjected to osteoblast differentiation from day 5.5 onwards. To stimulate differentiation into osteogenic cells, ES medium containing 10^−8 M Dexamethasone, 50 μg/ml L-ascorbic acid and 5 mM Sodium-beta-glycophosphate was used. The medium was changed every 2-3 days and the differentiation was continued upto 15 days. The osteoblast differentiation was characterized by identifying mineralized areas using von Kossa and Alizarin Red staining. These were visualized and acquired using a Nikon Eclipse 90i microscope (Nikon Corporation, Japan)."}, "[5]": {"tested_on": "HUES 9 EB", "experiment": "Expression profiles of lineage, pluripotency, epigenetic and imprinted genes in day 4.5 spherical EBs (HUES 9)", "format": "cell-based, human", "design": "key: The sign ‘+’ indicates expression of the gene; the sign “−” indicates non-expression of the gene", "details": "HUES 9 EB D4.5 LPS", "protocol": "RT-PCR: Total RNA from cells was isolated using TRIZOL-LS Reagent (Invitrogen) as per the manufacturer's protocol. Complementary DNA was synthesized using the SuperScript III First-Strand Synthesis System (Invitrogen) as per the manufacturer's instructions. Polymerase Chain Reaction (PCR) was carried out using 1U Tag DNA Polymerase (Sigma) and MgCl2 to a final concentration of 1.5 mM in a total volume of 25 μl/reaction. β-actin and GAPDH were used as the housekeeping controls. PCR cycles consisted of an initial denaturation at 95° C. for 5 minutes followed by 35 amplification cycles of denaturation at 94° C. for 45 seconds, annealing for 45 seconds, and extension at 72° C. for 45 seconds and final extension at 72° C. for 10 minutes.\nExamples of changes in the expression profiles/patterns of lineage markers, pluripotency markers, epigenetic markers and imprinted genes, in day 4.5 spherical cavitating/cytic embryoid bodies upon exposure to compounds like lipopolysaccharide (LPS), Rho kinase inhibitor (Y27632), Azacytidine (Aza), and biologicals like an Uvomorulin antibody (UVO) are given in the table nos. 9-12 below. The sign ‘+’ indicates expression of the gene and the sign “−” indicates non-expression of the gene."}, "[6]": {"details": "EBs pre-exposed to 12.5 pg/ml for 48 hrs"}}, "note": "“Also recorded” adds a separate entry of the source.", "data": [{"substance": "lipopolysaccharide [LPS]", "values": [{"measurement": "concentration enough to cause alterations in the proliferation of hematopoietic precursor cells in culture", "setting": "[1]", "result": "2 to 5", "unit": "pg/mL"}, {"measurement": "average number of cells per EB, treated vs control", "setting": "[2]", "result": "not significantly different"}, {"measurement": "average number of cells/EB (mean±SD)", "setting": "[2]; control 142.33±48.41", "result": "175±75.47", "unit": "cells/EB"}, {"measurement": "Brachury protein expression (immunofluorescence)", "setting": "[3]; 12.5 pg/ml for 48 hrs", "result": "no signals"}, {"measurement": "Brachury protein expression (immunofluorescence)", "setting": "[3]; 12.5 pg/ml for 48 hrs, listed as lipopolysaccharides", "result": "loss of expression"}, {"measurement": "localization of HMGB1 (immunofluorescence)", "setting": "[3]; 12.5 pg/ml for 48 hrs, normal EBs lacked signals", "result": "cytoplasmic localization; also recorded: localized in the cytoplasm"}, {"measurement": "Brachury expression on day 9.5", "setting": "[3]; EBs exposed to 12.5 pg/ml for 48 hrs, tested on day 9.5", "result": "did not show a positive signal"}, {"measurement": "efficiency for attachment and proliferation during induction of osteogenic differentiation, treated vs control EBs", "setting": "[4]; [6]", "result": "no differences were found"}, {"measurement": "osteoblast differentiation (mineralization by Alizarin Red and von Kossa staining)", "setting": "[4]; [6]", "result": "failed to differentiate into functional osteoblasts; also recorded: failed to undergo osteoblast differentiation"}, {"measurement": "osteoblast differentiation (mineralization by Alizarin Red and von Kossa staining)", "setting": "[4]; EBs pre-exposed to 12.5 pg/ml for 48 hrs, listed as lipopolysaccharides", "result": "absence of mineralization"}, {"measurement": "differentiation of exposed EBs into tissues of mesoderm origin (cardiomyocytes, blood or bone)", "setting": "[4]; LPS exposed EBs", "result": "failure to differentiate"}, {"measurement": "ABCG2 gene expression", "setting": "[5]; control +", "result": "−"}, {"measurement": "BMP4 gene expression", "setting": "[5]; control +", "result": "−"}, {"measurement": "BRACHURY gene expression", "setting": "[5]; control +", "result": "−"}, {"measurement": "CDH1 gene expression", "setting": "[5]; control +", "result": "−"}, {"measurement": "Dlk1 gene expression", "setting": "[5]; control +", "result": "−"}, {"measurement": "GATA2 gene expression", "setting": "[5]; control +", "result": "−"}, {"measurement": "HAND1 gene expression", "setting": "[5]; control +", "result": "−"}, {"measurement": "SDHD gene expression", "setting": "[5]; control +", "result": "−"}, {"measurement": "cTNT gene expression", "setting": "[5]; control +", "result": "−"}, {"measurement": "hANP gene expression", "setting": "[5]; control +", "result": "−"}, {"measurement": "DPYS gene expression", "setting": "[5]; control −", "result": "+"}, {"measurement": "HMGB1 gene expression", "setting": "[5]; control −", "result": "+"}]}]}
